Like-named read-outs stand apart in the source and are kept apart here.
Columns and labels:
[1] = tested on: HEK293 cells expressing H30 indicator; test: Uptake in living cells, Epac-based FRET cAMP indicator H30; format: cell-based; settings: 100 μM IBMX
From the text: Since FRET depends on the distance between the two fluorophores which in turn is ligand-dependent, this probe is used to estimate the intracellular level of cAMP or -analogs.
We can not exclude, however, that the Epac- based FRET sensor used for the measurements preferentially binds Sp-5,6-DCl-cBIMPS.
The ratio between the background subtracted emission intensities at 480 nm and 545 nm is plotted as a function of time. […] The insets show the yellow fluorescent protein fluorescence at the beginning of the experiments and the regions of interest where FRET ratios are calculated.
For transient expression of the H30 sensor, cells were seeded onto 24-mm diameter round glass coverslips, and transfections were performed at 50–70% confluence with FuGENE-6 transfection reagent (Roche). Imaging experiments were performed after about 24 h. Cells were maintained in Hepes-buffered Ringer-modified solution, containing 125 mM NaCl, 5 mM KCl, 1 mM Na3PO4, 1 mM MgS0_4, 5.5 mM glucose, 1 mM CaCl2, and 20 mM Hepes, pH 7.4, at room temperature and treated with 100 μM 3-Isobutyl-1-methylxanthine (IBMX, Sigma-Aldrich) 10 minutes before the experiments. […] FRET variations were measured as changes of the ratio between the background-subtracted fluorescence emission intensities at 480 nm and 545 nm, on excitation at 430 nm. […]

PDE4D5 = PDE4D5 (Homo sapiens, UniProt Q08499); test: Stability towards phosphodiesterase, coupled spectrophotometric activity assay; settings: 15 minutes of assay duration
From the text: Absolutely stable analogs would arise from conjugating the Pharos fluorophore to phosphorothioate- modified structures such as Rp- or Sp-cAMPS (Rp- or Sp-diastereomer of adenosine 3'-5'-monophosphorothiorate).

PKA-IIα holoenzyme = target: T1, PKA-IIα holoenzyme (Homo sapiens, UniProt P13861); test: PKA holoenzyme activation, coupled spectrophotometric kinase assay with Kemptide (RIIα + Cα); format: biochemical, human RIIα, murine Cα; settings: relative to cAMP
T1 construct: made in house; host or cells: E. coli BL21 (DE3) / BL21 (DE3) Codon Plus RIL
Protocol: (§1) Kinase activity was assayed spectrophotometrically, using the synthetic heptapeptide Kemptide as a substrate. […] Each data point represents the mean ± S.D. of two measurements.

[2] = target: T2, GFP-hRIα expressed in COS-7 cells (Homo sapiens, UniProt P10644); test: Co-localization with GFP-tagged RIα by confocal microscopy; format: cell-based; settings: 500 μM, 30 minutes
T2 construct: expressed in transfected cells; host or cells: COS-7
Protocol: (§2) The scale bar indicates 10 μm.
(§3) Cloning of the R subunits into the expression vector hpGFP^2-N2 (PerkinElmer) was performed as described previously. […] Cellular imaging was performed on a confocal microscope (Leica) with a Plan apo 100× oil immersion objective (Leica).

[3] = Absorption and fluorescence spectra, relative quantum yield; format: physicochemical; settings: pH 7.0
From the text: First we determined the photo-chemical properties of the free Pharos dye. The Stokes shift at pH 6.0, pH 7.0 and pH 7.4 was 42 nm resulting from an absorption maximum at 575 nm and an emission maximum at 617 nm (Fig. 1; […]
Figure 1 Fluorescence absorption and emission spectra of the Pharos dye. The absorption maxima of the Pharos dye dissolved in buffer with the indicated pH values is at 575 nm, whereas the emission maxima are at 617 nm.
To calculate the relative quantum yield ϕ of the Pharos dye the absorption (500 nm to 640 nm) and fluorescence (λex = 553 nm, λem ranging from 558 nm to 800 nm) spectra of several Pharos dye concentrations (640 nM to 64.2 μM) were recorded using quinine sulfate as a standard. The determination of the relative quantum yield is generally accomplished by plotting the integrated fluorescence intensity versus the absorbance at the excitation wavelength (see Additional file 1, panel a). By comparing the slope of the linear regression (see Additional file 1, panel b) with that of a standard substance (quinine sulfate), the relative quantum yield of the Pharos dye was determined to be 30%.
The Pharos dye was diluted in 20 mM 2-(4-morpholino)-ethane sulfonic acid (MES) buffer adjusted to pH 6.0, pH 7.0 and pH 7.4, and all samples were degassed by bubbling nitrogen through the solution before measuring the absorption or fluorescence spectra. […]

PKA-IIβ holoenzyme = target: T3, PKA-IIβ holoenzyme (Rattus norvegicus, UniProt P12369); test: PKA holoenzyme activation, coupled spectrophotometric kinase assay with Kemptide (RIIβ + Cα); format: biochemical, rat RIIβ, murine Cα; settings: relative to cAMP
T3 construct: made in house; host or cells: E. coli BL21 (DE3) / BL21 (DE3) Codon Plus RIL
Protocol: as §1

[4] = target: T4, GFP-hRIIα expressed in COS-7 cells (Homo sapiens, UniProt P13861); test: Co-localization with GFP-tagged RIIα by confocal microscopy; format: cell-based; settings: 500 μM, 30 minutes
T4 construct: expressed in transfected cells; host or cells: COS-7
Protocol: as §2, §3

[5] = target: T5, PKA-IIα sensor (RIIα-RLuc / GFP2-Cα) in COS-7 cells (Homo sapiens, UniProt P13861); test: BRET assay of PKA holoenzyme dissociation in living cells; settings: 30 minutes
From the text: In this assay, a decrease in BRET signal indicates intracellular dissociation of the PKA holoenzyme [42].
BRET signals were obtained after addition of the luciferase substrate DeepBlueC™ and detection of luciferase and fluorescence light emission using a multi-label reader. Shown is a representative experiment, repeated three times; data are mean ± S.E.M., performed with n = 6 replicates. […] Briefly, cells were co-transfected with a constant amount of BRET donor (hRIIα-Rluc) and an increasing amount of acceptor DNA (GFP^2-hCα) as indicated. […] The BRET values of two independent experiments, each performed with n = 6 replicates, were background subtracted, normalized and plotted as mean ± S.E.M.
COS-7 cells were used for BRET experiments. […] For the BRET read-out, the luciferase substrate DeepBlueC™ (PerkinElmer) was added at a final concentration of 5 μM in a total volume of 50 μl D-PBS. […] Control measurements with cells expressing RLuc and GFP proteins without a fusion partner yield the background BRET signal. A BRET titration (bystander BRET test) was performed by co-transfection of COS-7 cells with a constant donor-expression plasmid (0.5 μg) with an increasing amount of acceptor-expression plasmid (0–2 μg). The cells were treated as described above.

[6] = Retention-based lipophilicity by reversed phase HPLC (logKw)
RIα subunit = target: T6, RIα subunit (Homo sapiens, UniProt P10644); test: Fluorescence polarization displacement of 8-Fluo-cAMP from RIα subunit; format: binding; settings: 2.5 nM RIα, 1 nM 8-Fluo-cAMP
T6 construct: made in house; host or cells: E. coli BL21 (DE3) Codon Plus RIL
Protocol: (§4) . Figure 3 Competitive nucleotide binding assay using fluorescence polarization. […] 2.5 nM R subunit was added and fluorescence polarization was determined at Ex485 nm/Em535 nm. […] Each data point represents the mean +/- S.E.M. from at least triplicate measurements.
(§5) For expression of PKA regulatory subunits, one liter of Luria Broth medium containing 100 μg/ml of ampicillin was inoculated with E. coli BL21 (DE3) Codon Plus RIL cells (Stratagene) transformed with human RIα, RIβ, RIIα (in pRSETB) or rat RIIβ (in pETIIc) and grown at 37°C to an OD600 nm of 0.8. Recombinant protein expression was induced by addition of […] isopropyl-β-D-thiogalactopyranoside (IPTG) and the culture was incubated at 25°C for additional 17–18 h. The pellets were stored at -20°C.
(§6) The fluorescence polarization displacement assay was performed as described before. […] Fluorescence polarization was measured after 5 minutes of incubation at room temperature.

PKA-Iα holoenzyme = target: T7, PKA-Iα holoenzyme (Homo sapiens, UniProt P10644); test: PKA holoenzyme activation, coupled spectrophotometric kinase assay with Kemptide (RIα + Cα); format: biochemical, human RIα, murine Cα; settings: 20 nM PKA-Cα, 260 μM Kemptide; cAMP value printed with refs 27, 28 and Fig. 4a; read-out: apparent activation constant (EC50), RIα holoenzyme
T7 construct: made in house; host or cells: E. coli BL21 (DE3) / BL21 (DE3) Codon Plus RIL
Protocol: as §1

RIIα subunit = test: Fluorescence polarization displacement of 8-Fluo-cAMP from RIIα subunit; format: binding, human; settings: 2.5 nM RIIα, 1 nM 8-Fluo-cAMP
Protocol: as §4, §5, §6

RIIβ subunit = test: Fluorescence polarization displacement of 8-Fluo-cAMP from RIIβ subunit; format: binding, rat; settings: 2.5 nM RIIβ, 1 nM 8-Fluo-cAMP
Protocol: as §4, §5, §6

[7] = target: T5, PKA-IIα sensor (RIIα-RLuc / GFP2-Cα) in COS-7 cells; parameters: expressed in transfected cells; host or cells: COS-7; method as in PMID 16524697; settings: living cells; read-out: EC50, holoenzyme dissociation by BRET; cited from earlier work

T5 sequence (P13861 whole entry): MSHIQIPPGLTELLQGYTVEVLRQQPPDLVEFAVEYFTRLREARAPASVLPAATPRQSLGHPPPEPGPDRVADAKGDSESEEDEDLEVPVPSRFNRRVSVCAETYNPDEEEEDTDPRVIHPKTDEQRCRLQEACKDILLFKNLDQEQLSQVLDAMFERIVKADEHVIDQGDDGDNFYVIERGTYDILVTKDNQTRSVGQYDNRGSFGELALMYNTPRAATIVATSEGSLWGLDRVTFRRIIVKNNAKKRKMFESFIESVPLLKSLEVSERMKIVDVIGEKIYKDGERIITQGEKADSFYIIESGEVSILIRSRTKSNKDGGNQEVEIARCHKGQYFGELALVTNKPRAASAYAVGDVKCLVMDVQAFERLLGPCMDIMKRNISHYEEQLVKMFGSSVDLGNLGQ
T1 sequence (P13861 whole entry): as above
T4 sequence (P13861 whole entry): as above
PDE4D5, sequence (Q08499 1-745 isoform Q08499-6): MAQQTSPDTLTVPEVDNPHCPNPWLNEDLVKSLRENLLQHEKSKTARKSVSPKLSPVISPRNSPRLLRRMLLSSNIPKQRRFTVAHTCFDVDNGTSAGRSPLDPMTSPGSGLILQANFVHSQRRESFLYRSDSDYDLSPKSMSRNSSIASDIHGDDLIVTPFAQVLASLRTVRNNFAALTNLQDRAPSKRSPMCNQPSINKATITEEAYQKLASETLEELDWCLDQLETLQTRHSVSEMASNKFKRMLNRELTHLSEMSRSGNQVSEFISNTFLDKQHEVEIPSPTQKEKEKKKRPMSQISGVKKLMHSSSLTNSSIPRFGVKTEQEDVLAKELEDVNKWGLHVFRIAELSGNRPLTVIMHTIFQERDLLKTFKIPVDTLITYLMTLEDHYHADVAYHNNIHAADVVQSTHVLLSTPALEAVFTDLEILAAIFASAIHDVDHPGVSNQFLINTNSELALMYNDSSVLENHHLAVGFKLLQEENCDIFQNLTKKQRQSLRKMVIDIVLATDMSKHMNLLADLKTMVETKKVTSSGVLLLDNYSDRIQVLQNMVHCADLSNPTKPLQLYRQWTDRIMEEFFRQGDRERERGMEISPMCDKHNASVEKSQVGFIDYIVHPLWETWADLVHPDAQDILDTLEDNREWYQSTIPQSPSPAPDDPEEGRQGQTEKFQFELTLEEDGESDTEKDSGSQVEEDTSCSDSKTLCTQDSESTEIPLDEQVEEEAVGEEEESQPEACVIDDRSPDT
T7 sequence (P10644 whole entry): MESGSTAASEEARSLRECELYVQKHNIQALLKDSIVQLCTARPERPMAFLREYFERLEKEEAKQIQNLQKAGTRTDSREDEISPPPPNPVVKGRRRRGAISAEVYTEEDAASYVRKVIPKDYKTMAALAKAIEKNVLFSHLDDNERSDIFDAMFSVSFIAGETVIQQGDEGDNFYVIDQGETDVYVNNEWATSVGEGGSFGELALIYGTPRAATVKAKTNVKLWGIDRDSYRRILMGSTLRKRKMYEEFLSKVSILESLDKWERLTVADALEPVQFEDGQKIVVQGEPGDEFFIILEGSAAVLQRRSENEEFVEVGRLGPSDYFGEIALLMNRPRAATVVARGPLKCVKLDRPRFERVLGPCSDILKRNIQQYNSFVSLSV
T2 sequence (P10644 whole entry): as above
T6 sequence (P10644 whole entry): as above
T3 sequence (P12369 whole entry): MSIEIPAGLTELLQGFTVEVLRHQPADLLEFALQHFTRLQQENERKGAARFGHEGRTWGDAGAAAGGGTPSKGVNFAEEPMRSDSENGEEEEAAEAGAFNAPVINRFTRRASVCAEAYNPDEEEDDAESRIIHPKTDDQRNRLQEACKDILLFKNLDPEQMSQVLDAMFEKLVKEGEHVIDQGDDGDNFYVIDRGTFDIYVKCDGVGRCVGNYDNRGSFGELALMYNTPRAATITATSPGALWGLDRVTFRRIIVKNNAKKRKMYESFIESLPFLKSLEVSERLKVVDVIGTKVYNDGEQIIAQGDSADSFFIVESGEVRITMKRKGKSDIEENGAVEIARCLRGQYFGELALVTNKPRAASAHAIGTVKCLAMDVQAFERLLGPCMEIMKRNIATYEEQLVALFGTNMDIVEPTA

Molecule: O[C@@H]1[C@@H]2OP(O)(=S)OC[C@H]2O[C@H]1n1cnc2cc(Cl)c(Cl)cc21 (single isomer, unassigned) [Sp-5,6-DCl-cBIMPS, 5,6-dichlorobenzimidazole riboside-3',5'-cyclic monophosphorothioate, Sp-isomer, reference compound]
- state of the fluorescent FRET probe after treatment ([1]; 500 μM, after 40 minutes of treatment): almost completely saturated

Molecule: 8-[Pharos-575]adenosine -3',5'-cyclic monophosphate [8-[ϕ-575]-cAMP]
- degradation by PDE4D5 (PDE4D5): No degradation
- apparent activation constant (EC50) compared to cAMP, RIIα holoenzyme (PKA-IIα holoenzyme): about two-fold increased
- co-localization with GFP-tagged RIα [2]: co-localization
- emission maximum [3]: 605 nm
- excitation maximum [3]: 577 nm
- apparent activation constant (EC50) compared to cAMP, RIIβ holoenzyme (PKA-IIβ holoenzyme): about two-fold increased
- co-localization with GFP-tagged RIIα [4]: co-localization
- inhibition of specific RIIα-Cα interaction (BRET titration) ([5]; 600 μM, COS-7 cells): about 50%
- EC50 ([5]; read-out: concentration for half-maximal holoenzyme dissociation, added to intact COS-7 cells): ~600 µM
- increased lipophilicity compared to cAMP ([6]; from logKw): more than 70 times
- logKw ([6]; reversed phase HPLC, YMC RP-18): 2.95
- concentration available to the intracellular fluorescent indicator ([1]; 500 μM added for one hour, estimated from cAMP dose-FRET response curve): about 7 μM
- binding to the R subunit compared with cAMP (displacement of 8-Fluo-cAMP) (RIα subunit): bound equally well
- EC50 (PKA-Iα holoenzyme): 0.15 µM
- times cAMP is more efficient in displacing 8-Fluo-cAMP compared to 8-[ϕ-575]-cAMP (RIIα subunit): about 10 times
- times cAMP is more efficient in displacing 8-Fluo-cAMP compared to 8-[ϕ-575]-cAMP (RIIβ subunit): ~5 times

Molecule: Nc1ncnc2c1nc(Br)n2[C@@H]1O[C@@H]2COP(=O)(O)O[C@H]2[C@H]1O [8-Br-cAMP, 8-Bromoadenosine-3',5'-cyclic monophosphate]
- EC50 [7]: 1500 µM
